Results as given in ChEMBL document CHEMBL1201862, “PubChem BioAssay data set” (2004).
Calls of active or inactive are those of the source.

Experiments:
[1] = viability loss in CEM21 cells – cell-based, CellTiter-Glo luminescence, cherry-picked, cytotoxicity control for viral fusion inhibitor project, dose response (AID 652042); assay type: functional;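 also: potency for signal decrease meaning cytotoxicity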
[2] = blockers of HIV-1 ZM109 envelope-driven cell-cell fusion – HeLa effector, CEM target cells, luciferase, cherry-pick, dose response (AID 652058); assay type: functional, cell-based;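 also: luciferase signal from HIV-1 Env mediated cell-cell fusion of effector and target cells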
[3] = blockers of HIV-1 envelope-mediated cell-cell fusion – cherry-pick, dose response (AID 652057); assay type: functional, cell-based
[4] = off-target signal loss in HeLa-CEM21 co-culture – HeLa F-luc CTL cells, cherry-picked, counter-screen for HIV-1 Env fusion inhibitor project, dose response (AID 652040); assay type: functional, cell-based;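 also: potency for signal decrease marking cytotoxic or nonspecific inhibition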
[5] = HIV-1 AD8 envelope cell-cell fusion blockers – cherry-pick, dose response (AID 652062); assay type: functional, cell-based;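 also: luciferase signal from cell-cell fusion driven by HIV-1 clade B AD8 Env; potency is for inhibitors of fusion seen as a drop in luminescence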
[6] = target: T1, RNA-binding protein pos-1 (Caenorhabditis elegans, UniProt G5EF15); test: disruptors of C. elegans POS-1 RNA interaction – biochemical, fluorescence polarization, dose response (AID 1964);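 also: purified POS-1 fused to maltose binding protein made in E. coli; potency of compounds blocking POS-1 binding to fluorescent RNA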
T1 sequence (G5EF15 whole entry): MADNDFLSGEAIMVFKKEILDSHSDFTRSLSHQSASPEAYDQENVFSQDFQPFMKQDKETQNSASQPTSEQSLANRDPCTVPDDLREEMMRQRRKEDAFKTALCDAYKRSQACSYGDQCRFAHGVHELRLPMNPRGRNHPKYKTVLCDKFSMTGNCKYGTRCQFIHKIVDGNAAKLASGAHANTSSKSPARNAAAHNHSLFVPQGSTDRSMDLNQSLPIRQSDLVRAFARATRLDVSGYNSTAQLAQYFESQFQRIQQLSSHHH

[7] = target: T2, Aminopeptidase N (Plasmodium falciparum FcB1/Columbia, UniProt O96935); test: malaria alanyl aminopeptidase activity blockers – biochemical, fluorogenic H-Leu-NHMec substrate, 1536-well (AID 1445); parameters: species or system Plasmodium falciparum 3D7, 3D7
T2 sequence (O96935 whole entry): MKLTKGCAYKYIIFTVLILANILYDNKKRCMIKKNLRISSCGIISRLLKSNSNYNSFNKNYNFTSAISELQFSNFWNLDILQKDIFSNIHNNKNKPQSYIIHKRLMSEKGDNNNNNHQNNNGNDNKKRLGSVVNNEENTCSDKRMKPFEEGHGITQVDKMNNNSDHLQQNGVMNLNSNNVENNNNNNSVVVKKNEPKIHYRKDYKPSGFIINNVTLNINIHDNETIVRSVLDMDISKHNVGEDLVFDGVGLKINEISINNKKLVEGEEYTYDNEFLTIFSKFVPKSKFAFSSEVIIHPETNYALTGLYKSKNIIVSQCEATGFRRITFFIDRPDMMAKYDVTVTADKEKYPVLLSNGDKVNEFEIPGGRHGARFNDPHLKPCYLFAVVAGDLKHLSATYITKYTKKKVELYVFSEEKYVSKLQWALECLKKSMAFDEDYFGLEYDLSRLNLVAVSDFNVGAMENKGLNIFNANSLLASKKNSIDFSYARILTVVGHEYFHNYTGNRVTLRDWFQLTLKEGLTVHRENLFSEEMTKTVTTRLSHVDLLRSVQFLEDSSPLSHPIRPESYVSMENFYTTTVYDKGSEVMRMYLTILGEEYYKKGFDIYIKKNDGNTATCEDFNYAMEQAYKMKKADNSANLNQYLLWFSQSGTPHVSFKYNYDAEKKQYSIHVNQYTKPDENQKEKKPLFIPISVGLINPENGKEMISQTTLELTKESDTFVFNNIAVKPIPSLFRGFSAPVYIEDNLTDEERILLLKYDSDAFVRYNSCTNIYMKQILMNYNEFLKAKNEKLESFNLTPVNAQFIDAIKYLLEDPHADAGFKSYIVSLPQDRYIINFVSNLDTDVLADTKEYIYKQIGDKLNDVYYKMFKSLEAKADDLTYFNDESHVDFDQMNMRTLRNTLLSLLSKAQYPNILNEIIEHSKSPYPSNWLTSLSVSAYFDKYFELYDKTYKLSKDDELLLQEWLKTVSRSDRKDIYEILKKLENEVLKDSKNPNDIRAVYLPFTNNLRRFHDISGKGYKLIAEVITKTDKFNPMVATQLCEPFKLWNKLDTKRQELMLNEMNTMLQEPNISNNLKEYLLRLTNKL

[8] = target: Albumin (Bos taurus, UniProt P02769); test: Counterscreen for inhibitors of T-cell receptor (TCR)-CD3 interaction: Fluorescence-based biochemical high throughput dose response assay to identify inhibitors of T-cell receptor (TCR)-CD3 interaction using a TAMRA-labeled BSA probe.; assay type: functional
[9] = target: T3, Zinc finger protein mex-5 (Caenorhabditis elegans, UniProt Q9XUB2); test: potency of MEX-5 RNA-binding blockers – biochemical, C. elegans, fluorescence polarization, dose response (AID 1960)
T3 sequence (Q9XUB2 whole entry): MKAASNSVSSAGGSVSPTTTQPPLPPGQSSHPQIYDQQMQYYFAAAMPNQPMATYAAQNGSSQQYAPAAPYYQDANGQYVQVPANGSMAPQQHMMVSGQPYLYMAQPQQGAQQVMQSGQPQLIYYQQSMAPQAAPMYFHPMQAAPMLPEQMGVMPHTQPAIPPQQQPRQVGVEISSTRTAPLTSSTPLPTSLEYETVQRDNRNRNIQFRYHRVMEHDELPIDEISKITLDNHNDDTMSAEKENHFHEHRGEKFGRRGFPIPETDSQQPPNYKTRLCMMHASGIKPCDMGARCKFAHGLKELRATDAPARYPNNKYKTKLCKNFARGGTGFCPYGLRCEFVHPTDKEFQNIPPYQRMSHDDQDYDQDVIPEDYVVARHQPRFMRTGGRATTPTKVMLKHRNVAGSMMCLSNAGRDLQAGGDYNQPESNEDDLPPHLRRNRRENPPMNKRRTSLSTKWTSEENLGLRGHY

[10] = target: 5-hydroxytryptamine receptor 2A (Mus musculus, UniProt P35363); assay type: functional, cell-based;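 also: CHO-K1 cells with tagged receptor and beta-arrestin; agonist potency measured as compound-induced activation of the receptor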
[11] = target: Mu-type opioid receptor (Homo sapiens, UniProt P35372); assay type: functional, cell-based;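 also: U2OS cells with beta-arrestin recruitment to OPRM1 by beta-gal complementation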
[12] = system: Vero; test: cells; assay type: functional; conditions: Chlorocebus sabaeus
[13] = system: Streptococcus sp. 'group A'; test: Streptococcus pyogenes SK(-)GAS viability under kanamycin – luminescence, BacTiterGlo, confirmation, counter-screen for streptokinase expression inhibitor project, dose response (AID 1900); assay type: functional, organism-based
[14] = system: Streptococcus; test: GAS UMAA2166 growth inhibition – luminescence, BacTiterGlo, counter-screen for streptokinase expression inhibitor project, dose response (AID 1915); assay type: functional, organism-based;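 also: potency for reduction of bacterial viability or growth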
[15] = target: T4, Corticotropin-releasing factor receptor 2/Corticotropin-releasing factor-binding protein (Homo sapiens, UniProt P24387+Q13324); test: Dose Response confirmation of uHTS hits for small molecule antagonists of the CRF-binding protein and CRF-R2 receptor complex.; assay type: functional; conditions: read-out: IC50_Mean
T4 sequence (Q13324 whole entry): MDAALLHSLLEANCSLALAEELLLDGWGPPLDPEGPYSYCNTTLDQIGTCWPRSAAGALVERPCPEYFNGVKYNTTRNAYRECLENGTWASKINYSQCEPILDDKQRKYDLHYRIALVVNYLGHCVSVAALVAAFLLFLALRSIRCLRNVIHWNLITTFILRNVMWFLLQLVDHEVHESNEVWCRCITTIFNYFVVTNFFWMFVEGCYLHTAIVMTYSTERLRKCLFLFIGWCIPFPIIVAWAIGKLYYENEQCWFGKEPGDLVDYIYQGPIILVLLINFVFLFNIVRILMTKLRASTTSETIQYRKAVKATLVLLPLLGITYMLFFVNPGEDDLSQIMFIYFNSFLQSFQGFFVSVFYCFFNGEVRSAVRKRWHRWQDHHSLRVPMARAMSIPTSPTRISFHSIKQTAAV
T4 sequence (P24387 whole entry): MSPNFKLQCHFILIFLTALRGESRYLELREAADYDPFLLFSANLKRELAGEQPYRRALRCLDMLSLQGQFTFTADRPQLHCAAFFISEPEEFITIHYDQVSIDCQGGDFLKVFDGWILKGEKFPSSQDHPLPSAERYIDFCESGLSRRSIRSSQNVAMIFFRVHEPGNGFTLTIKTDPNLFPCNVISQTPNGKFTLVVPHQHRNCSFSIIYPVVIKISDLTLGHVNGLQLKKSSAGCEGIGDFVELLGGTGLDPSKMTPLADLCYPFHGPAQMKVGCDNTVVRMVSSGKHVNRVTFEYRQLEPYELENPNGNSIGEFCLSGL

[16] = target: T4, Corticotropin-releasing factor receptor 2/Corticotropin-releasing factor-binding protein; test: activators of CRF receptor 2 with binding protein – uHTS hits, confirmation (AID 602473); assay type: functional; conditions: read-out: EC50_Mean
[17] = blockers of CRF-binding protein–CRF-R2 complex – cell-based, uHTS hits, 384-well, dose response (AID 651639); assay type: functional, Homo sapiens; conditions: read-out: IC50_Mean
[18] = target: T5, Sentrin-specific protease 8 (Homo sapiens, UniProt Q96LD8); assay type: functional
T5 sequence (Q96LD8 whole entry): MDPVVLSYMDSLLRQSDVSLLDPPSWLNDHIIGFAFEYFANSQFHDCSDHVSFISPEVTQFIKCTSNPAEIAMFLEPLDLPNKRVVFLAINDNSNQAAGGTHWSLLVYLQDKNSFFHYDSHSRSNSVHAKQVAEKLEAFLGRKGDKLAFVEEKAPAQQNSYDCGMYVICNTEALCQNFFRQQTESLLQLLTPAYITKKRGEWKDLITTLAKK

[19] = target: T6, Fatty acid synthase (Homo sapiens, UniProt P49327); test: inhibition of human FAS-TE enzyme activity – biochemical, endpoint fluorescence intensity, uHTS hits, dose response (AID 624327); assay type: functional;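 also: fluorescence from hydrolysis of an O-methyl fluorescein acyl ester substrate by the enzyme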
[20] = target: T6, Fatty acid synthase; test: inhibition of human FAS-TE enzyme activity – biochemical, kinetic fluorescence intensity, dose response (AID 624326); assay type: functional;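 also: rate of fluorescence rise from hydrolysis of a fluorogenic O-methyl fluorescein ester substrate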
[21] = target: T7, Carboxy-terminal domain RNA polymerase II polypeptide A small phosphatase 1 (Homo sapiens, UniProt Q9GZU7); test: CTDSP1 inhibitors, concentration-response, biochemical, absorbance readout, ultra-high-throughput screen actives (AID 540297); assay type: functional
T7 sequence (Q9GZU7 whole entry): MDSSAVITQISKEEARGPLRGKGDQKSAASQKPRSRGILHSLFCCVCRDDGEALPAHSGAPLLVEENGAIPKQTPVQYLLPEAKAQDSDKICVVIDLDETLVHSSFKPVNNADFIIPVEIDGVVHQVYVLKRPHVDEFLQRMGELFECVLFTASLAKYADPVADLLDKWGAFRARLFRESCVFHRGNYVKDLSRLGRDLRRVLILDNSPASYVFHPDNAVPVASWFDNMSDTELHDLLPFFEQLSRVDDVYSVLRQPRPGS

[22] = target: T5, Sentrin-specific protease 8; assay type: functional; remark: listed apart in the source
[23] = cells; assay type: functional
[24] = target: T8, Protein skinhead-1 (Caenorhabditis elegans, UniProt P34707); assay type: functional
T8 sequence (P34707 whole entry): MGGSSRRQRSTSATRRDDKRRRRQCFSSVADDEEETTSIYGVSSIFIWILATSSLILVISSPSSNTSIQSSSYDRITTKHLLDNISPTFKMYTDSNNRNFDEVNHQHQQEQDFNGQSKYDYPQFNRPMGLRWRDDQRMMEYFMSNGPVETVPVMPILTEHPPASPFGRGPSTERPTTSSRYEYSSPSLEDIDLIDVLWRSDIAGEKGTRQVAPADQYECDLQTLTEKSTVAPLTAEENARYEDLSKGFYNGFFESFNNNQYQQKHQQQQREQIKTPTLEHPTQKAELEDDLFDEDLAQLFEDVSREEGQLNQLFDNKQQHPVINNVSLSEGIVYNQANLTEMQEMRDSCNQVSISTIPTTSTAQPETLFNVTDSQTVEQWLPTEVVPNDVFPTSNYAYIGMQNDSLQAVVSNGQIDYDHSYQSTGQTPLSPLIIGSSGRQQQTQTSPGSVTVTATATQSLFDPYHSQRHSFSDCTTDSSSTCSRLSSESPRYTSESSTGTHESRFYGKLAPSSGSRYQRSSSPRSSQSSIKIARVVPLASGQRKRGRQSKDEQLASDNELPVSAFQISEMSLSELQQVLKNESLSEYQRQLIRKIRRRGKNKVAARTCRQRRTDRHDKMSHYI

Chain of 5-hydroxytryptamine receptor 2A (P35363 whole entry): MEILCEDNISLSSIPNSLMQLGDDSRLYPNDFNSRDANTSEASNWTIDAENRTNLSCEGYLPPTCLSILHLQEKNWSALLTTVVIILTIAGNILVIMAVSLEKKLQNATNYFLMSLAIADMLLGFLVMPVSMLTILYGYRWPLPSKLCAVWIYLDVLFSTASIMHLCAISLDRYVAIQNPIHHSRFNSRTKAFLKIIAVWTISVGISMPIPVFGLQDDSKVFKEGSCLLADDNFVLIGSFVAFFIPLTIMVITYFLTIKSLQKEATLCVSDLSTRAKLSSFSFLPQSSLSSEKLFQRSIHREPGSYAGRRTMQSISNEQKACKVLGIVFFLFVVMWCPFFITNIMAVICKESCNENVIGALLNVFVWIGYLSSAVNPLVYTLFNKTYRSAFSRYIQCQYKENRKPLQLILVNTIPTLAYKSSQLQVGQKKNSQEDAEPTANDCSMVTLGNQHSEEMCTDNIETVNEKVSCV
Chain of Mu-type opioid receptor (P35372 whole entry): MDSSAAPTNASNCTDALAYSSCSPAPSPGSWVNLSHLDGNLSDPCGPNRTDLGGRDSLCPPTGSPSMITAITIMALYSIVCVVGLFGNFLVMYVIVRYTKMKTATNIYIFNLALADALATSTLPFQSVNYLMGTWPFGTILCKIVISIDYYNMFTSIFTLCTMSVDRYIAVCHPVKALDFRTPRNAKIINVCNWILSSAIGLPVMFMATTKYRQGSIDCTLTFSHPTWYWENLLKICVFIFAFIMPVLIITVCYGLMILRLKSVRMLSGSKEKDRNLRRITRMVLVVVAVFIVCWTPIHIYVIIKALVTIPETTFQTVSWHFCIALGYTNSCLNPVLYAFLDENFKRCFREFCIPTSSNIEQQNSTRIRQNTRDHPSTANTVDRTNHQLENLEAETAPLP
Chain of Albumin (P02769 whole entry): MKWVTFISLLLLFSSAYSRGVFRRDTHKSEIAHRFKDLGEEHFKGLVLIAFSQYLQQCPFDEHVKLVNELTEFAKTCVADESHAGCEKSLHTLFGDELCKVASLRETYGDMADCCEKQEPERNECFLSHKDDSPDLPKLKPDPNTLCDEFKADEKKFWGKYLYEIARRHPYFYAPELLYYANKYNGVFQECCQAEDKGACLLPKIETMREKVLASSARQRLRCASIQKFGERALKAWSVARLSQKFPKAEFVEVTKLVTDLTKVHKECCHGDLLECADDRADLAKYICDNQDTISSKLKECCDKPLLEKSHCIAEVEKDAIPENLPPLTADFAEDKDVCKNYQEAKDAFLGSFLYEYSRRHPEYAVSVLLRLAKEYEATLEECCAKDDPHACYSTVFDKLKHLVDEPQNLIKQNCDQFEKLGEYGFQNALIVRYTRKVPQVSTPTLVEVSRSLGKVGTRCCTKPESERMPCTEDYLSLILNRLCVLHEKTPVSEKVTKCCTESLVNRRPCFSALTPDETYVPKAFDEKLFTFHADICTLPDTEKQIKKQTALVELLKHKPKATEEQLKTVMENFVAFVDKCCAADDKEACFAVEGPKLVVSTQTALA
T6 sequence (P49327 whole entry): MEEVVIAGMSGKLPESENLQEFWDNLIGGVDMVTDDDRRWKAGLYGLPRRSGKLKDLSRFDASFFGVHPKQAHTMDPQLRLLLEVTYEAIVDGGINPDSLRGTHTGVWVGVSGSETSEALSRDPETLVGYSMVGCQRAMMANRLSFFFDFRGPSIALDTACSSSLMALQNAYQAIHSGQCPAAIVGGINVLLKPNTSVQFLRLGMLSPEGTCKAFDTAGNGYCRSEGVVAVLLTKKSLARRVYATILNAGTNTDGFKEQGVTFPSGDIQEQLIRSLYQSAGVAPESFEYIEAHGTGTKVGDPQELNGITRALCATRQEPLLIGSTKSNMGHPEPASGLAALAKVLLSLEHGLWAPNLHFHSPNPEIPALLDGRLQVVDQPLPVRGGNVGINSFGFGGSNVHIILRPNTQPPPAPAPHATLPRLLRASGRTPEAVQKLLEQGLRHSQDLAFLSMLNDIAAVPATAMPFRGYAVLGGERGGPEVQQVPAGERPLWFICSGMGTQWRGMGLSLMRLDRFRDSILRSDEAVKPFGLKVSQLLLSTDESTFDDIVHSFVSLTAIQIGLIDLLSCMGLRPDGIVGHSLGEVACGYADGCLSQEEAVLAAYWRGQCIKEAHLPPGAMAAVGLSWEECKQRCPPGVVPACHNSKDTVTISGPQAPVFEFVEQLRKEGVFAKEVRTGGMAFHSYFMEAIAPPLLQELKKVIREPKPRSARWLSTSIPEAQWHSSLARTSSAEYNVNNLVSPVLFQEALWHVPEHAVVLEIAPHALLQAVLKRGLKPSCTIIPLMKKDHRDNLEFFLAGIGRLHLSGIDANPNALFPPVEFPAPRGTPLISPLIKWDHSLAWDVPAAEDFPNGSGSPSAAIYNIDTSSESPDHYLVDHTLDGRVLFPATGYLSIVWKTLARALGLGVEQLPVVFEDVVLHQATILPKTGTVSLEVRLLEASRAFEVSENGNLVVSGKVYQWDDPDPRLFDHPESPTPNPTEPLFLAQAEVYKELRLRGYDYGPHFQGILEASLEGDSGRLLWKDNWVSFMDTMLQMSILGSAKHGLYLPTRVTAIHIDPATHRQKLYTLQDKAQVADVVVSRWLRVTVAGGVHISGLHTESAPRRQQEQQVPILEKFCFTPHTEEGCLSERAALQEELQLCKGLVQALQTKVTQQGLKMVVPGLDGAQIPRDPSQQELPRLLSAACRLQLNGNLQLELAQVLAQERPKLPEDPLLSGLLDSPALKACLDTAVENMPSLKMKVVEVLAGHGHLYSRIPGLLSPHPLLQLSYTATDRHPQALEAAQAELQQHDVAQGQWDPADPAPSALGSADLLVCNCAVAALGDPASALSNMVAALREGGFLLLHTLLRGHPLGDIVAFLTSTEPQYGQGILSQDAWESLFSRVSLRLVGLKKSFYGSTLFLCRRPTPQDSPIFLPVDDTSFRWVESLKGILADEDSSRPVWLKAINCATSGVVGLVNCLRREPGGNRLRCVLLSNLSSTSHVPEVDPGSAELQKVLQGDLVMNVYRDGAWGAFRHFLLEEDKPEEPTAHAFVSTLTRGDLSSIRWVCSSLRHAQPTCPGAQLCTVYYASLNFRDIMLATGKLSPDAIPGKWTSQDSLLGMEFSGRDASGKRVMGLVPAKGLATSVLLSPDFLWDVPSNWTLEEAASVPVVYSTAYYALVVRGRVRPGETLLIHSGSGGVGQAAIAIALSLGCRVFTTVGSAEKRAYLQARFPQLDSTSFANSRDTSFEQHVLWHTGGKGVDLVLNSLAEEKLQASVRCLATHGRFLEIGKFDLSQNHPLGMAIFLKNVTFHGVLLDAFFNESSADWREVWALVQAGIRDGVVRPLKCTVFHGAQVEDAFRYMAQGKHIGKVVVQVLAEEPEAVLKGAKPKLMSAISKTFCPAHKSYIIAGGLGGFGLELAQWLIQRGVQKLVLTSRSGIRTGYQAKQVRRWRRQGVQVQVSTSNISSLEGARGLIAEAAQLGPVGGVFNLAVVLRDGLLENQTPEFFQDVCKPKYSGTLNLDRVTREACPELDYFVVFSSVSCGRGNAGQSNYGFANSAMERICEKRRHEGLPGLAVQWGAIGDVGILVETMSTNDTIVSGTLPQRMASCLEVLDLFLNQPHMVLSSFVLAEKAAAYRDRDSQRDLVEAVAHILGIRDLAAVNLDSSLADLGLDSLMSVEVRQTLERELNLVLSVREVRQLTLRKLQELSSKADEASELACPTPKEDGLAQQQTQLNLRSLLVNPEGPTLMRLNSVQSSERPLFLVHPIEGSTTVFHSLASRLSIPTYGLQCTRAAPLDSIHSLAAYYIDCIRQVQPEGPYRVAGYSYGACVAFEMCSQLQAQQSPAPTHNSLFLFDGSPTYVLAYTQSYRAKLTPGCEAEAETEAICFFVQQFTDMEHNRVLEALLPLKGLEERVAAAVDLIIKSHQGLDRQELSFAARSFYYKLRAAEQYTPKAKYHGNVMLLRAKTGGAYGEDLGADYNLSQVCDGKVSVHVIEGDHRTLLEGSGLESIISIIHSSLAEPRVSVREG

COc1ccc(CC(N)c2csc(NC(=O)Nc3ccccc3Oc3ccccc3)n2)cc1 (configuration not stated)
AC50 [1]: 21.3 µM (active)
AC50 [2]: 2.85 µM (active)
AC50 [3]: 1.17 µM (active)
AC50 [4]: 1.72 µM (active)
AC50 [5]: 2.16 µM (active)

Cc1cc(C(=O)N/N=C/c2cc(Cl)cc([N+](=O)[O-])c2O)[nH]n1
EC50 [6]: > 300 µM (not active)
IC50 [7]: 52.3 µM (active)
IC50 [8]: > 94.1 µM (inactive)
EC50 [9]: > 300 µM (inconclusive)

O=C(C1CCC1)N1CCc2cc(S(=O)(=O)NCCN3CCN(c4ccccc4F)CC3)ccc21
EC50 [10]: 13.4 µM (inactive)
EC50 [11]: 92.5 µM (inactive)

COc1ccc(C(=O)NNC(=S)NC(=O)c2ccc(Br)o2)cc1OC
CC50 [12]: > 25 µM (active)
IC50 [8]: > 94.1 µM (inactive)
EC50 [13]: 0.79 µM (active)
EC50 [14]: 9.11 µM (active)

CC(=O)NC(Cc1ccc(C(C)C)cc1)C(=O)NC1CCN(C(=O)c2cccc(C)c2)CC1 (configuration not stated)
IC50 [15]: 24.4 µM (active)
EC50 [16]: > 53 µM (inactive)
IC50 [17]: 10.8 µM (active)

CCOC(=O)C1CCN(Cc2cccc(Oc3ccc(Cl)cc3)c2)CC1
EC50 [10]: 2.82 µM (active)
EC50 [11]: 92.5 µM (inactive)

O=C(c1ccco1)N1CCN(CCCCOc2ccc(F)cc2)CC1
EC50 [10]: 4.68 µM (active)
EC50 [11]: 92.5 µM (inactive)

O=C1NC(=S)S/C1=C\c1cc(Cl)ccc1Cl
IC50 [15]: 2.87 µM (active)
EC50 [16]: > 53 µM (inactive)
IC50 [17]: 9.52 µM (active)

Cc1ccc(-n2[nH]c(C)c(/C=N/Nc3ccc([N+](=O)[O-])cc3[N+](=O)[O-])c2=O)cc1
IC50 [18]: 100 µM (inactive)
IC50 [19]: 12.6 µM (active)
IC50 [20]: 13.6 µM (active)
IC50 [15]: 6.1 µM (active)
EC50 [16]: > 53 µM (inactive)
IC50 [21]: 6.07 µM (active)
IC50 [22]: 62.4 µM (inactive)

Cc1cc(C)n(-c2ccc(C(=O)Oc3ccc4c(c3)OCO4)cc2)n1
IC50 [15]: 9.66 µM (active)
IC50 [23]: 6.28 µM (active)
IC50 [24]: > 100 µM (inactive)
EC50 [16]: > 53 µM (inactive)
IC50 [17]: > 20 µM (inactive)
